Assay results: publication PMC10998878, “Inhibition of acyl-CoA binding protein (ACBP) by means of a GABAARγ2-derived peptide” (Cell Death & Disease, 2024)

System: GFP-LC3-expressing hepatocytes
Assay: Hepatocyte autophagy activation (GFP-LC3 dots)
Assay type: cell-based
Conditions: GFP-LC3 mouse hepatocytes, peptide 10 µg/mL, with leupeptin
Method: […] Leupeptin (100 μM) was added 4 h before fixation. Cells were stained with Hoechst 33342 solution (Thermo Scientific™, #62249, 1 µg/mL) and fixed with 4% paraformaldehyde (PFA) solution. Both blue (Hoechst-derived) and green (GFP-LC3-derived) fluorescence were imaged using a Zeiss LSM 710 confocal microscope. Images were analyzed using R software.
Hepatocytes were isolated from 4 transgenic mice expressing microtubule- associated proteins 1A/1B light chain 3B (hereafter referred to as LC3) fused to green fluorescent protein (GFP) (resulting fusion protein: LC3-GFP) under a ubiquitous promoter. Such oligo- or monocellular hepatocyte suspensions were cultured in the continuous presence of leupeptin at 37°C in the absence (A) or presence (B) of the GABAARγ2- EP- WT […]
Cells were counterstained with Hoechst
33342 and representative fluorescence images are shown (bar size: 10 µm). The number of LC3-GFP+ dots per cells (defined as an area of interest around the 1 or 2 Hoechst 33342- positive nuclei per cell) were determined by image analysis and plotted in C .
Results are shown as means ± standards of the mean, and statistics were calculated with […]

## INMEYTIDIFFAQTWYDRRL [GABAARγ2-EP-WT]
  capacity to enhance autophagic flux: enhance autophagic flux
Confocal microscopy
  number of LC3-GFP dots per cell: increased the number of LC3-GFP dots
